Measurements as given in PubChem BioAssay AID1918939 (Molecular Pharmacology Branch, DTP, NCI, 2023).

Tested on: 653999-131-R-J2-PDC complex spheroid viability
Assay: Anticancer human tumor 653999-131-R-J2-PDC patient-derived lung adenocarcinoma cell line growth inhibition
Conditions: for IC50: curve of first compound; for viability, T/C: stronger effect = lower value
Method in brief: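 Drug combinations with the LSD1 inhibitor iadademstat tested on tumor cells co-cultured as spheroids with endothelial cells and mesenchymal stem cells. Concentrations descended in half-log increments from clinical Cmax or 10 microM.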

[1] = second compound 0.1 µM, first compound 0.0316 µM
[2] = second compound 0.1 µM, first compound 0.1 µM
[3] = second compound 0.1 µM, first compound 0.316 µM
[4] = second compound 0.1 µM, first compound 1 µM
[5] = second compound 0.1 µM, first compound 3.16 µM
[6] = second compound 0.1 µM, first compound 10 µM
[7] = second compound 0.316 µM, first compound 0.0316 µM
[8] = second compound 0.316 µM, first compound 0.1 µM
[9] = second compound 0.316 µM, first compound 0.316 µM
[10] = second compound 0.316 µM, first compound 1 µM
[11] = second compound 0.316 µM, first compound 3.16 µM
[12] = second compound 0.316 µM, first compound 10 µM
[13] = second compound 1 µM, first compound 0.0316 µM
[14] = second compound 1 µM, first compound 0.1 µM
[15] = second compound 1 µM, first compound 0.316 µM
[16] = second compound 1 µM, first compound 1 µM
[17] = second compound 1 µM, first compound 3.16 µM
[18] = second compound 1 µM, first compound 10 µM
[19] = second compound 3.16 µM, first compound 0.0316 µM
[20] = second compound 3.16 µM, first compound 0.1 µM
[21] = second compound 3.16 µM, first compound 0.316 µM
[22] = second compound 3.16 µM, first compound 1 µM
[23] = second compound 3.16 µM, first compound 3.16 µM
[24] = second compound 3.16 µM, first compound 10 µM
[25] = second compound 10 µM, first compound 0.0316 µM
[26] = second compound 10 µM, first compound 0.1 µM
[27] = second compound 10 µM, first compound 0.316 µM
[28] = second compound 10 µM, first compound 1 µM
[29] = second compound 10 µM, first compound 3.16 µM
[30] = second compound 10 µM, first compound 10 µM
[31] = second compound 0.1 µM, first compound 0.00316 µM
[32] = second compound 0.1 µM, first compound 0.01 µM
[33] = second compound 0.316 µM, first compound 0.00316 µM
[34] = second compound 0.316 µM, first compound 0.01 µM
[35] = second compound 1 µM, first compound 0.00316 µM
[36] = second compound 1 µM, first compound 0.01 µM
[37] = second compound 3.16 µM, first compound 0.00316 µM
[38] = second compound 3.16 µM, first compound 0.01 µM
[39] = second compound 10 µM, first compound 0.00316 µM
[40] = second compound 10 µM, first compound 0.01 µM
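Also: spheroids exposed to agents for seven days before readout.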

`CC(C)c1c(-c2ccccc2)nc2c(C#N)c[nH]n2c1=O` + NC1CCC(NC2CC2c2ccccc2)CC1 was tested, and the IC50 (second compound 0.1 µM) was > 10000 nM, the IC50 (second compound 0.316 µM) was > 10000 nM and the IC50 (second compound 1 µM) was > 10000 nM. The IC50 (second compound 3.16 µM) was > 10000 nM, the IC50 (second compound 10 µM) was > 10000 nM and the viability, T/C [1] was 92.5%. The viability, T/C [2] was 97.8%, the viability, T/C [3] was 91.4% and the viability, T/C [4] was 80.6%. For the same compound, the viability, T/C [5] was 91.8%, the viability, T/C [6] was 91.5% and the viability, T/C [7] was 94.5%. The viability, T/C [8] was 89.6%, the viability, T/C [9] was 100% and the viability, T/C [10] was 82.3%. The viability, T/C [11] was 85.5%, the viability, T/C [12] was 77.5% and the viability, T/C [13] was 94.2%. For the same compound, the viability, T/C [14] was 105%, the viability, T/C [15] was 92.8% and the viability, T/C [16] was 84.9%. The viability, T/C [17] was 87.2%, the viability, T/C [18] was 85.1% and the viability, T/C [19] was 85.9%. The viability, T/C [20] was 103%, the viability, T/C [21] was 84.6% and the viability, T/C [22] was 95.1%. It also gave a viability, T/C [23] of 89%, a viability, T/C [24] of 80% and a viability, T/C [25] of 91.9%. It also gave a viability, T/C [26] of 88.1%, a viability, T/C [27] of 82.6% and a viability, T/C [28] of 78.1%. For the same compound, the viability, T/C [29] was 75.5% and the viability, T/C [30] was 69.4%.
Work on `CC1COCCN1c1cc(-c2ccnn2C)c2ccnc(-c3ccn[nH]3)c2n1` (stereo not given) + NC1CCC(NC2CC2c2ccccc2)CC1 yielded an IC50 (second compound 0.1 µM) of 23 nM, an IC50 (second compound 0.316 µM) of 21.8 nM and an IC50 (second compound 1 µM) of 35.3 nM. It also gave an IC50 (second compound 3.16 µM) of 24.4 nM, an IC50 (second compound 10 µM) of 31.8 nM and a viability, T/C [31] of 85.9%. The viability, T/C [32] was 67.7%, the viability, T/C [1] was 42.8% and the viability, T/C [2] was 33%. The viability, T/C [3] was 32.3%, the viability, T/C [4] was 27.1% and the viability, T/C [33] was 79.6%. For the same compound, the viability, T/C [34] was 59%, the viability, T/C [7] was 48.1% and the viability, T/C [8] was 32.3%. For the same compound, the viability, T/C [9] was 28.1%, the viability, T/C [10] was 27.7% and the viability, T/C [35] was 78.1%. For the same compound, the viability, T/C [36] was 67.7%, the viability, T/C [13] was 52% and the viability, T/C [14] was 35.9%. It also gave a viability, T/C [15] of 33.9%, a viability, T/C [16] of 27.9% and a viability, T/C [37] of 92.2%. It also gave a viability, T/C [38] of 64.1%, a viability, T/C [19] of 44.8% and a viability, T/C [20] of 37.3%. The viability, T/C [21] was 31.1%, the viability, T/C [22] was 27.8% and the viability, T/C [39] was 84.4%. For the same compound, the viability, T/C [40] was 68.1%, the viability, T/C [25] was 50.9% and the viability, T/C [26] was 36.5%. The viability, T/C [27] was 33.5% and the viability, T/C [28] was 30.1%.
`COc1ccc([C@@H](O)c2cc(-c3ncnc4cc(N5CCOCC5)ccc34)c(F)cc2Cl)nn1` + NC1CCC(NC2CC2c2ccccc2)CC1 gave an IC50 (second compound 0.1 µM) of 1830 nM, an IC50 (second compound 0.316 µM) of 1750 nM and an IC50 (second compound 1 µM) of 2560 nM. It also gave an IC50 (second compound 3.16 µM) of 2250 nM, an IC50 (second compound 10 µM) of 1720 nM and a viability, T/C [1] of 97.4%. For the same compound, the viability, T/C [2] was 94.9%, the viability, T/C [3] was 68.8% and the viability, T/C [4] was 61.5%. For the same compound, the viability, T/C [5] was 42%, the viability, T/C [6] was 30.9% and the viability, T/C [7] was 106%. The viability, T/C [8] was 85.3%, the viability, T/C [9] was 74.7% and the viability, T/C [10] was 60.8%. The viability, T/C [11] was 39%, the viability, T/C [12] was 28.1% and the viability, T/C [13] was 96.5%. For the same compound, the viability, T/C [14] was 98%, the viability, T/C [15] was 76.6% and the viability, T/C [16] was 68.5%. For the same compound, the viability, T/C [17] was 45.7%, the viability, T/C [18] was 29.4% and the viability, T/C [19] was 84.2%. For the same compound, the viability, T/C [20] was 114%, the viability, T/C [21] was 78.1% and the viability, T/C [22] was 65.2%. It also gave a viability, T/C [23] of 46.4%, a viability, T/C [24] of 31.5% and a viability, T/C [25] of 108%. The viability, T/C [26] was 98%, the viability, T/C [27] was 72% and the viability, T/C [28] was 57%. It also gave a viability, T/C [29] of 44.6% and a viability, T/C [30] of 29.4%.
`O=C(C=Cn1cnc(-c2cc(C(F)(F)F)cc(C(F)(F)F)c2)n1)NNc1cnccn1` + NC1CCC(NC2CC2c2ccccc2)CC1 was tested, and the IC50 (second compound 0.1 µM) was 4.91 nM, the IC50 (second compound 0.316 µM) was 8.22 nM and the IC50 (second compound 1 µM) was 12.7 nM. The IC50 (second compound 3.16 µM) was 11.1 nM, the IC50 (second compound 10 µM) was 9.83 nM and the viability, T/C [31] was 53.1%. The viability, T/C [32] was 46.5%, the viability, T/C [1] was 35.8% and the viability, T/C [2] was 30.6%. The viability, T/C [3] was 31.8%, the viability, T/C [4] was 19.6% and the viability, T/C [33] was 57.2%. For the same compound, the viability, T/C [34] was 48.7%, the viability, T/C [7] was 40.9% and the viability, T/C [8] was 34.6%. For the same compound, the viability, T/C [9] was 29.4%, the viability, T/C [10] was 26.2% and the viability, T/C [35] was 53.6%. It also gave a viability, T/C [36] of 50.1%, a viability, T/C [13] of 48% and a viability, T/C [14] of 34.6%. The viability, T/C [15] was 30.6%, the viability, T/C [16] was 22.4% and the viability, T/C [37] was 64%. The viability, T/C [38] was 46.3%, the viability, T/C [19] was 42.7% and the viability, T/C [20] was 35.4%. The viability, T/C [21] was 29.1%, the viability, T/C [22] was 21.9% and the viability, T/C [39] was 60.4%. For the same compound, the viability, T/C [40] was 45.5%, the viability, T/C [25] was 41% and the viability, T/C [26] was 40.6%. For the same compound, the viability, T/C [27] was 32.5% and the viability, T/C [28] was 24.2%.
